Laboratory results published in the supplement of paper PMC13380429.

Tests used:
Conditions in all cases: 72 h
[1] = system: Vero E6; test: cell viability relative to DMSO; higher = less toxic
[2] = system: U2OS; test: as above
[3] = system: Calu-3; test: as above
[4] = system: Caco-2; test: as above
[5] = system: HepG2; test: as above
[6] = system: Vero E6; test: relative viability EC50 (midpoint between 100% and the lowest measured viability); higher = less toxic
[7] = system: U2OS; test: as above
[8] = system: Calu-3; test: as above
[9] = system: Caco-2; test: as above
[10] = system: HepG2; test: as above
[11] = system: Vero E6; test: drug sensitivity score (DSS) for viability; higher = more toxic; extreme values may be limits of the assay
[12] = system: U2OS; test: as above
[13] = system: Calu-3; test: as above
[14] = system: Caco-2; test: as above
[15] = system: HepG2; test: as above

`CC(CC(C(N)=O)(c1ccccc1)c1ccccc1)N(C)C` (stereo not given) [aminopentamide] gave a cell viability ([1]; 1 nM) of 95.9%, a cell viability ([1]; 10 nM) of 96.1% and a cell viability ([1]; 100 nM) of 91.5%. It also gave a cell viability ([1]; 1000 nM) of 98.3%, a cell viability ([1]; 10000 nM) of 104% and a cell viability ([2]; 1 nM) of 95.8%. For the same compound, the cell viability ([2]; 10 nM) was 94.9%, the cell viability ([2]; 100 nM) was 101% and the cell viability ([2]; 1000 nM) was 101%. The cell viability ([2]; 10000 nM) was 101%, the cell viability ([3]; 1 nM) was 110% and the cell viability ([3]; 10 nM) was 97.8%. For the same compound, the cell viability ([3]; 100 nM) was 104%, the cell viability ([3]; 1000 nM) was 92.2% and the cell viability ([3]; 10000 nM) was 98.9%. For the same compound, the cell viability ([4]; 1 nM) was 95.3%, the cell viability ([4]; 10 nM) was 90.2% and the cell viability ([4]; 100 nM) was 97.1%. It also gave a cell viability ([4]; 1000 nM) of 92.8%, a cell viability ([4]; 10000 nM) of 98% and a cell viability ([5]; 1 nM) of 100%. It also gave a cell viability ([5]; 10 nM) of 99.6%, a cell viability ([5]; 100 nM) of 95.2% and a cell viability ([5]; 1000 nM) of 103%. The cell viability ([5]; 10000 nM) was 104%, the “relative viability EC50” value [6] was over 10 µM and the “relative viability EC50” value [7] was over 10 µM. For the same compound, the “relative viability EC50” value [8] was over 10 µM, the “relative viability EC50” value [9] was over 10 µM and the “relative viability EC50” value [10] was over 10 µM. For the same compound, the drug sensitivity score [11] was 0, the drug sensitivity score [12] was 0 and the drug sensitivity score [13] was 0. It also gave a drug sensitivity score [14] of 0 and a drug sensitivity score [15] of 0.

Work on `CC(C)CN(C[C@@H](O)[C@H](Cc1ccccc1)NC(=O)O[C@H]1CCOC1)S(=O)(=O)c1ccc(N)cc1` [amprenavir] yielded a cell viability ([1]; 1 nM) of 110%, a cell viability ([1]; 10 nM) of 102% and a cell viability ([1]; 100 nM) of 93.9%. It also gave a cell viability ([1]; 1000 nM) of 101%, a cell viability ([1]; 10000 nM) of 93.4% and a cell viability ([2]; 1 nM) of 106%. It also gave a cell viability ([2]; 10 nM) of 97.8%, a cell viability ([2]; 100 nM) of 96.5% and a cell viability ([2]; 1000 nM) of 98.6%. For the same compound, the cell viability ([2]; 10000 nM) was 101%, the cell viability ([3]; 1 nM) was 101% and the cell viability ([3]; 10 nM) was 102%. It also gave a cell viability ([3]; 100 nM) of 99.3%, a cell viability ([3]; 1000 nM) of 97.7% and a cell viability ([3]; 10000 nM) of 107%. The cell viability ([4]; 1 nM) was 103%, the cell viability ([4]; 10 nM) was 100% and the cell viability ([4]; 100 nM) was 106%. For the same compound, the cell viability ([4]; 1000 nM) was 87.2%, the cell viability ([4]; 10000 nM) was 87.7% and the cell viability ([5]; 1 nM) was 114%. For the same compound, the cell viability ([5]; 10 nM) was 88.9%, the cell viability ([5]; 100 nM) was 92.7% and the cell viability ([5]; 1000 nM) was 96.5%. The cell viability ([5]; 10000 nM) was 87.7%, the “relative viability EC50” value [6] was over 10 µM and the “relative viability EC50” value [7] was over 10 µM. The “relative viability EC50” value [8] was over 10 µM, the “relative viability EC50” value [9] was over 10 µM and the “relative viability EC50” value [10] was over 10 µM. For the same compound, the drug sensitivity score [11] was 0, the drug sensitivity score [12] was 0 and the drug sensitivity score [13] was 0. For the same compound, the drug sensitivity score [14] was 0.6 and the drug sensitivity score [15] was 0.

In the case of `CCCc1ncc(C[n+]2ccccc2C)c(N)n1` [amprolium], the cell viability ([1]; 1 nM) is reported as 100%, the cell viability ([1]; 10 nM) is reported as 108% and the cell viability ([1]; 100 nM) is reported as 92.8%. For the same compound, the cell viability ([1]; 1000 nM) was 112%, the cell viability ([1]; 10000 nM) was 102% and the cell viability ([2]; 1 nM) was 101%. It also gave a cell viability ([2]; 10 nM) of 97.2%, a cell viability ([2]; 100 nM) of 102% and a cell viability ([2]; 1000 nM) of 100%. For the same compound, the cell viability ([2]; 10000 nM) was 104%, the cell viability ([3]; 1 nM) was 104% and the cell viability ([3]; 10 nM) was 97.2%. The cell viability ([3]; 100 nM) was 99.5%, the cell viability ([3]; 1000 nM) was 101% and the cell viability ([3]; 10000 nM) was 107%. The cell viability ([4]; 1 nM) was 112%, the cell viability ([4]; 10 nM) was 94.9% and the cell viability ([4]; 100 nM) was 88.5%. It also gave a cell viability ([4]; 1000 nM) of 90.5%, a cell viability ([4]; 10000 nM) of 99.9% and a cell viability ([5]; 1 nM) of 96.4%. The cell viability ([5]; 10 nM) was 103%, the cell viability ([5]; 100 nM) was 89.2% and the cell viability ([5]; 1000 nM) was 97.1%. For the same compound, the cell viability ([5]; 10000 nM) was 92.1%, the “relative viability EC50” value [6] was over 10 µM and the “relative viability EC50” value [7] was over 10 µM. For the same compound, the “relative viability EC50” value [8] was over 10 µM, the “relative viability EC50” value [9] was over 10 µM and the “relative viability EC50” value [10] was over 10 µM. It also gave a drug sensitivity score [11] of 0, a drug sensitivity score [12] of 0 and a drug sensitivity score [13] of 0. The drug sensitivity score [14] was 0.9 and the drug sensitivity score [15] was 0.

With `CCO[C@H]1O[C@@H]2O[C@@]3(C)CC[C@H]4[C@H](C)CC[C@@H]([C@H]1C)[C@@]24OO3` [artemotil] the cell viability ([1]; 1 nM) was 89.7%, the cell viability ([1]; 10 nM) was 95.1% and the cell viability ([1]; 100 nM) was 95.8%. It also gave a cell viability ([1]; 1000 nM) of 91.5%, a cell viability ([1]; 10000 nM) of 98% and a cell viability ([2]; 1 nM) of 98.1%. For the same compound, the cell viability ([2]; 10 nM) was 100%, the cell viability ([2]; 100 nM) was 95.4% and the cell viability ([2]; 1000 nM) was 97.2%. It also gave a cell viability ([2]; 10000 nM) of 79.1%, a cell viability ([3]; 1 nM) of 94.2% and a cell viability ([3]; 10 nM) of 109%. The cell viability ([3]; 100 nM) was 95.4%, the cell viability ([3]; 1000 nM) was 109% and the cell viability ([3]; 10000 nM) was 104%. For the same compound, the cell viability ([4]; 1 nM) was 92.1%, the cell viability ([4]; 10 nM) was 101% and the cell viability ([4]; 100 nM) was 86.6%. It also gave a cell viability ([4]; 1000 nM) of 94.5%, a cell viability ([4]; 10000 nM) of 91.5% and a cell viability ([5]; 1 nM) of 107%. It also gave a cell viability ([5]; 10 nM) of 100%, a cell viability ([5]; 100 nM) of 104% and a cell viability ([5]; 1000 nM) of 89.1%. For the same compound, the cell viability ([5]; 10000 nM) was 94.5%, the “relative viability EC50” value [6] was over 10 µM and the “relative viability EC50” value [7] was over 10 µM. For the same compound, the “relative viability EC50” value [8] was over 10 µM, the “relative viability EC50” value [9] was over 10 µM and the “relative viability EC50” value [10] was over 10 µM. The drug sensitivity score [11] was 0, the drug sensitivity score [12] was 1 and the drug sensitivity score [13] was 0. For the same compound, the drug sensitivity score [14] was 0 and the drug sensitivity score [15] was 0.2.
